According to the NIST ThermoML archive (doi:10.1021/je500395f):

Conditions: Fluid (supercritical or subcritical phases), Coaxial cylinder method

CCC [propane]
thermal conductivity [W/m/K]
Conditions | 370.45 K | 371.05 K
2710 kPa | – | 0.03205
3100 kPa | – | 0.03344
3375 kPa | – | 0.03463
3452 kPa | 0.03558 | –
3487 kPa | 0.0359 | –
3655 kPa | – | 0.03745
3770 kPa | 0.03805 | –
3856 kPa | 0.03938 | –
3900 kPa | – | 0.04056
3986 kPa | 0.04204 | –
4042 kPa | 0.04385 | –
4095 kPa | – | 0.04417
4105 kPa | 0.04623 | –
4155 kPa | – | 0.04633
4170 kPa | 0.05102 | –
4190 kPa | 0.05329 | –
4200 kPa | 0.055 | –
4205 kPa | 0.05577 | –
4215 kPa | – | 0.04915
4217 kPa | 0.05902 | –
4224 kPa | 0.06133 | –
4227 kPa | 0.06249 | –
4232 kPa | 0.06383 | –
4235 kPa | – | 0.0519
4241 kPa | 0.06723 | –
4244 kPa | 0.06856 | –
4245 kPa | 0.06879 | –
4250 kPa | 0.07121 | –
4252 kPa | – | 0.05394
4255 kPa | 0.0743 | –
4260 kPa | 0.0774 | –
4265 kPa | 0.08106 | 0.05669
4270 kPa | 0.08804 | –
4275 kPa | 0.09622 | –
4276 kPa | – | 0.05854
4280 kPa | 0.1118 | –
4284 kPa | – | 0.06121
4285 kPa | 0.1252 | –
4289 kPa | – | 0.06357
4290 kPa | 0.1423 | –
4295 kPa | 0.156 | 0.06602
4300 kPa | 0.1452 | –
4301 kPa | – | 0.06867
4305 kPa | 0.1291 | –
4308 kPa | – | 0.07332
4310 kPa | 0.1181 | –
4313 kPa | – | 0.07659
4315 kPa | 0.1061 | –
4318 kPa | – | 0.08141
4319 kPa | – | 0.08406
4320 kPa | 0.101 | –
4322 kPa | – | 0.08836
4324 kPa | – | 0.09107
4325 kPa | 0.09628 | 0.09395
4326 kPa | – | 0.09568
4328 kPa | – | 0.09934
4329 kPa | – | 0.1013
4330 kPa | 0.09201 | –
4331 kPa | – | 0.1054
4332 kPa | – | 0.1075
4334 kPa | – | 0.1104
4335 kPa | 0.08809 | –
4336 kPa | – | 0.114
4337 kPa | – | 0.1159
4338 kPa | – | 0.1172
4339 kPa | – | 0.1178
4340 kPa | 0.08122 | 0.1185
4342 kPa | – | 0.1192
4343 kPa | – | 0.1192
4344 kPa | – | 0.1192
4345 kPa | 0.07814 | 0.1185
4346 kPa | – | 0.1178
4347 kPa | – | 0.1159
4349 kPa | – | 0.1121
4350 kPa | 0.07669 | –
4351 kPa | – | 0.1081
4354 kPa | – | 0.1028
4355 kPa | 0.07528 | –
4356 kPa | – | 0.09934
4358 kPa | – | 0.09657
4360 kPa | 0.07393 | 0.09395
4361 kPa | – | 0.09311
4365 kPa | – | 0.08989
4367 kPa | – | 0.08836
4370 kPa | – | 0.08616
4375 kPa | – | 0.08406
4377 kPa | 0.07217 | –
4383 kPa | – | 0.08141
4387 kPa | – | 0.08015
4392 kPa | – | 0.07865
4396 kPa | – | 0.07776
4400 kPa | 0.07099 | –
4402 kPa | – | 0.07633
4408 kPa | – | 0.07494
4414 kPa | – | 0.07363
4420 kPa | 0.07014 | 0.07231
4440 kPa | – | 0.07105
4485 kPa | – | 0.06921
4560 kPa | 0.06814 | –
4580 kPa | 0.06769 | –
4800 kPa | 0.06654 | –
5000 kPa | 0.06717 | –
5500 kPa | 0.06784 | –
5550 kPa | 0.06791 | –
5760 kPa | 0.06812 | –
6000 kPa | 0.06874 | –
6500 kPa | 0.06997 | –
7000 kPa | 0.07091 | –
7500 kPa | 0.07178 | –
8000 kPa | 0.07277 | –
8500 kPa | 0.07381 | –
9000 kPa | 0.07421 | –
9500 kPa | 0.07545 | –
10000 kPa | 0.07572 | –
10500 kPa | 0.07624 | –
11000 kPa | 0.07677 | –
11200 kPa | 0.07735 | –
11300 kPa | 0.07645 | –
15100 kPa | 0.08094 | –
